Laboratory results as given in patent US10273503B2, “Compounds and methods for enhancing viral gene transfer to human hematopoietic cells” (UNIVERSTÉ DE MONTRÉAL, priority 2015, dated 2019).
Where two headings read alike, the source gives them in different places.

System: human CD34+ cells
Experiment: Expansion of human CD34+ cells (EC50, CD34+CD45RA- cell count)
Type: cell-based
Conditions: concentration that results in a 50% increase in CD34+CD45RA- cell count compared to vehicle cultures (DMSO); for EC50: read-out: Biological data (EC50)*

Compound	EC50 (Homo sapiens) [nM]	other results
COC(=O)c1ccc2c(c1)[nH]c1ncnc(NCCCCN(C)C)c12 [Cmpd 10]	250 to 500	–
COC(=O)c1ccc2c(c1)[nH]c1ncnc(NC3CCC(N)CC3)c12 (stereo not drawn) [Cmpd 45]	–	EC50: 250 to 500 nM
COC(=O)c1cnc2c(c1)[nH]c1nc(Cc3ccccc3)nc(NCC(C)CN(C)C)c12 (stereo not drawn) [Cmpd 73]	500 to 1000	–
COC(=O)c1ccc2c(c1)[nH]c1nc(Cc3ccc4ccccc4c3)nc(NCCCN3CCCCC3)c12 [Cmpd 27]	100 to 250	–
COC(=O)c1ccc2c(c1)[nH]c1nc(Cc3cnccn3)nc(NCCCN3CCCCC3)c12 [Cmpd 24]	500 to 1000	–
Cn1nnc(-c2ccc3c(c2)[nH]c2ncnc(NCCCN4CCCCC4)c23)n1 [Cmpd 21]	100 to 250	–
COC(=O)c1cnc2c(c1)[nH]c1nc(Cc3cccc(OC)c3)nc(NCCCN3CCCCC3C)c12 (stereo not drawn) [Cmpd 63]	250 to 500	–
N#Cc1ccc2c(c1)[nH]c1nc(Cc3ccccc3)nc(NCCCN3CCCCC3)c12 [Cmpd 43]	250 to 500	–
COC(=O)c1cnc2c(c1)[nH]c1nc(Cc3ccsc3)nc(SCCCN3CCCCC3)c12 [Cmpd 62]	500 to 1000	–
CNCCCNc1nc(Cc2cccc(F)c2)nc2[nH]c3cc(C(=O)OC)cnc3c12 [Cmpd 72]	> 1000	–
COC(=O)c1cnc2c(c1)[nH]c1nc(Cc3cccc(F)c3)nc(NCCCN3CCCCC3)c12 [Cmpd 70]	> 1000	–
COC(=O)c1ccc2c(c1)[nH]c1nc(C(OC)c3ccccc3)nc(NCCCN3CCCCC3)c12 (stereo not drawn) [Cmpd 28]	< 100	–
COC(=O)c1ccc2c(c1)[nH]c1cc(Cc3ccsc3)nc(NCCN(C)CCNC(=O)OC(C)(C)C)c12 [Cmpd 83]	> 1000	–
COC(=O)c1ccc2c(c1)[nH]c1nc(C(=O)c3ccccc3)nc(NCCCN3CCCCC3)c12 [Cmpd 30]	–	Biological data (EC50)*: F (F = compound showed >1.3 fold expansion)
COC(=O)c1ccc2c(c1)[nH]c1nc(Cc3cccc(C(=O)C(F)(F)F)c3)nc(NCCCN3CCCCC3)c12 [Cmpd 39]	< 100	–
COC(=O)c1cnc2c(c1)[nH]c1nc(Cc3ccsc3)nc(NCCCN3CCCCC3)c12 [Cmpd 61]	250 to 500	–
COC(=O)c1ccc2c(c1)[nH]c1nc(Cc3ccsc3)nc(NCCCN3CCCCC3)c12 [Cmpd 25]	< 100	–
COC(=O)c1ccc2c(c1)[nH]c1nc(Cc3ccccc3)nc(NCCCN(C)CCOCCOCCO)c12 [Cmpd 49]	< 100	–
COC(=O)c1ccc2c(c1)[nH]c1nc(Cc3ccccc3)nc(CCCCN3CCCCC3)c12 [Cmpd 48]	–	Biological data (EC50)*: F (F = compound showed >1.3 fold expansion)
COC(=O)c1ccc2c(c1)[nH]c1nc(Cc3cccc(C4(C(F)(F)F)N=N4)c3)nc(NCCCN3CCCCC3)c12 [Cmpd 32]	< 100	–
COC(=O)c1ccc2c(c1)[nH]c1nc(Cc3ccc(C)cc3)nc(NCCCN3CCCCC3)c12 [Cmpd 37]	< 100	–
COC(=O)c1cnc2c(c1)[nH]c1nc(Cc3cccc(F)c3)nc(NCCCN(C)CCCN)c12 [Cmpd 71]	250 to 500	–
C#CCNCCCN(C)CCCNc1nc(Cc2ccccc2)nc2[nH]c3cc(C(=O)OC)ccc3c12 [Cmpd 54]	–	Biological data (EC50)*: F (F = compound showed >1.3 fold expansion)
COC(=O)c1ccc2c(c1)[nH]c1ncnc(NCCCN)c12 [Cmpd 15]	250 to 500	–
COC(=O)c1ccc2c(c1)[nH]c1nc(Cc3ccccc3)nc(NCCCN3CCCCC3)c12 [Cmpd 34]	< 100	–
COC(=O)c1ccc2c(c1)[nH]c1cc(Cc3cccc(O)c3)nc(NCCCCN3CCCC3)c12 [Cmpd 82]	< 100	–

Compound	EC50 (Homo sapiens) [nM]	other results
COC(=O)c1ccc2c(c1)[nH]c1nc(C)nc(NCCCN3CCCCC3)c12 [Cmpd 58]	> 1000	–
COC(=O)c1ccc2c(c1)[nH]c1nc(Cc3ccccc3C)nc(NCCCN3CCCCC3)c12 [Cmpd 36]	< 100	–
COC(=O)c1ccc2c(c1)[nH]c1nc(Cc3ccccc3)nc(NCCCN(C)CCCN)c12 [Cmpd 50]	< 100	–
COC(=O)c1ccc2c(c1)[nH]c1nc(Cc3cc(Br)cc(I)c3)nc(NCCCN3CCCCC3)c12 [Cmpd 26]	< 100	–
COC(=O)c1ccc2c(c1)[nH]c1nc(C(O)c3ccccc3)nc(NCCCN3CCCCC3)c12 (stereo not drawn) [Cmpd 29]	–	Biological data (EC50)*: F (F = compound showed >1.3 fold expansion)
COC(=O)c1ccc2c(c1)[nH]c1ncnc(NC3CCNCC3)c12 [Cmpd 17]	500 to 1000	–
COC(=O)c1ccc2c(c1)[nH]c1ncnc(NCCN(C)C)c12 [Cmpd 11]	100 to 250	–
COC(=O)c1ccc2c(c1)[nH]c1nc(Cc3cccc(OC)c3)nc(NCCCN3CCCCC3)c12 [Cmpd 38]	< 100	–
Cc1noc(-c2ccc3c(c2)[nH]c2nc(Cc4ccccc4)nc(NCCCN4CCCCC4)c23)n1.Cl [Cmpd 42]	–	Biological data (EC50)*: F (F = compound showed >1.3 fold expansion)
CCN(CC)CCN(CC)c1nc(Cc2ccccc2)nc2[nH]c3cc(C(=O)OC)cnc3c12 [Cmpd 75]	250 to 500	–
COC(=O)c1cnc2c(c1)[nH]c1nc(Cc3ccccc3)nc(N3CCC(N(C)C)CC3)c12 [Cmpd 74]	100 to 250	–
CNCCCN(C)c1nc(Cc2cccnc2)cc2[nH]c3cc(C(=O)OC)ccc3c12 [Cmpd 87]	> 1000	–
COC(=O)c1ccc2c(c1)[nH]c1ccnc(NCCCN3CCCCC3)c12 [Cmpd 76]	> 1000	–
COC(=O)c1ccc2c(c1)[nH]c1ncnc(NC3CCC(N)CC3)c12 (stereo not drawn) [Cmpd 44]	–	EC50: 100 to 250 nM
Cn1nnc(-c2cnc3c(c2)[nH]c2nc(Cc4ccccc4)nc(N[C@H]4CC[C@H](N)CC4)c23)n1 [Cmpd 69]	250 to 500	–
COC(=O)c1ccc2c(c1)[nH]c1cc(Cc3cccnc3)nc(NCCCN3CCOCC3)c12 [Cmpd 84]	500 to 1000	–
COC(=O)c1ccc2c(c1)[nH]c1cc(Cc3ccsc3)nc(N[C@H]3CC[C@H](N)CC3)c12 [Cmpd 88]	100 to 250	–
COC(=O)c1ccc2c(c1)[nH]c1nc(Cc3cccc(C4(C(F)(F)F)N=N4)c3)nc(NCCCN(C)CCCNC(=O)CCCCC3SCC4NC(=O)NC43)c12 (stereo not drawn) [Cmpd 57]	–	Biological data (EC50)*: F (F = compound showed >1.3 fold expansion)
COC(=O)c1ccc2c(c1)[nH]c1cc(Cc3ccsc3)nc(NCCN(C)CCN)c12 [Cmpd 89]	250 to 500	–
COC(=O)c1ccc2c(c1)[nH]c1ncnc(N3CCC(N4CCCCC4)CC3)c12 [Cmpd 20]	100 to 250	–
COC(=O)c1ccc2c(c1)[nH]c1cc(Cc3ccccc3)nc(NCCCN3CCCCC3)c12 [Cmpd 77]	< 100	–
CCN(CCCN1CCCCC1)c1nc(Cc2ccccc2)nc2[nH]c3cc(C(=O)OC)ccc3c12 [Cmpd 53]	> 1000	–
COC(=O)c1ccc2c(c1)[nH]c1cc(Cc3cccc(OC)c3)nc(NCCCCN3CCCC3)c12 [Cmpd 81]	< 100	–
CNC(=O)c1ccc2c(c1)[nH]c1nc(Cc3ccccc3)nc(NCCCN3CCCCC3)c12 [Cmpd 59]	> 1000	–
COC(=O)c1ccc2c(c1)[nH]c1ncnc(NCCN3CCCCC3)c12 [Cmpd 13]	250 to 500	–
COC(=O)c1ccc2c(c1)[nH]c1nc(Cc3cccnc3)nc(NCCCN3CCCCC3)c12 [Cmpd 22]	< 100	–

Compound	EC50 (Homo sapiens) [nM]	other results
CNCCCNc1nc(Cc2ccccc2C)nc2[nH]c3cc(C(=O)OC)cnc3c12 [Cmpd 68]	500 to 1000	–
C#CCOC(CNc1nc(Cc2ccccc2)nc2[nH]c3cc(C(=O)OC)ccc3c12)CN1CCCCC1 (stereo not drawn) [Cmpd 52]	< 100	–
COC(=O)c1ccc2c(c1)[nH]c1ncnc(NCC(O)CN3CCCCC3)c12 (stereo not drawn) [Cmpd 16]	250 to 500	–
COC(=O)c1ccc2c(c1)[nH]c1nc(Cc3ccccc3)nc(OCCCN3CCCCC3)c12 [Cmpd 47]	500 to 1000	–
COC(=O)c1cnc2c(c1)[nH]c1nc(Cc3ccccc3)nc(NCCCN3CCCCC3)c12 [Cmpd 60]	250 to 500	–
CN(C)C1CCC(Nc2nc(Cc3ccccc3)nc3[nH]c4cc(-c5nnn(C)n5)ccc4c23)CC1 (stereo not drawn) [Cmpd 46]	< 100	–
COC(=O)c1ccc2c(c1)[nH]c1nc(Cc3ccccc3)nc(NCC(O)CN3CCCCC3)c12 (stereo not drawn) [Cmpd 51]	< 100	–
COC(=O)c1ccc2c(c1)[nH]c1ncnc(NCCCN3CCCCC3)c12 [Cmpd 2]	250 to 500	–
COC(=O)c1ccc2c(c1)[nH]c1cc(Cc3ccccc3)nc(N(C)CCCN(C)C)c12 [Cmpd 79]	< 100	–
COC(=O)c1ccc2c(c1)[nH]c1nc(Cc3cccc(Br)c3)nc(NCCCN3CCCCC3)c12 [Cmpd 35]	< 100	–
COC(=O)c1cnc2c(c1)[nH]c1nc(Cc3ccccc3C)nc(NCCCN3CCCC3)c12 [Cmpd 67]	250 to 500	–
COC(=O)c1ccc2c(c1)[nH]c1ncnc(NCCCN(C)C)c12 [Cmpd 12]	500 to 1000	–
Cn1nnc(-c2ccc3c(c2)[nH]c2cc(Cc4ccccc4)nc(NCCCN4CCCCC4)c23)n1 [Cmpd 80]	100 to 250	–
COC(=O)c1ccc2c(c1)[nH]c1cc(Cc3ccsc3)nc(NCCCN3CCCCC3)c12 [Cmpd 85]	100 to 250	–
COC(=O)c1ccc2c(c1)[nH]c1nc(C(C)c3ccccc3)nc(NCCCN3CCCCC3)c12 (stereo not drawn) [Cmpd 31]	< 100	–
CCN(CC)CCNc1nc(Cc2cccc(OC)c2)nc2[nH]c3cc(C(=O)OC)cnc3c12 [Cmpd 64]	500 to 1000	–
COC(=O)c1ccc2c(c1)[nH]c1nc(Cc3ccncc3)nc(NCCCN3CCCCC3)c12 [Cmpd 23]	250 to 500	–
CCOC(=O)c1ccc2c(c1)[nH]c1nc(Cc3ccccc3)nc(NCCCN3CCCCC3)c12 [Cmpd 33]	–	Biological data (EC50)*: F (F = compound showed >1.3 fold expansion)
COC(=O)c1ccc2c(c1)[nH]c1ncnc(NCCCN3CCCCC3C)c12 (stereo not drawn) [Cmpd 14]	100 to 250	–
Cn1nnc(-c2ccc3c(c2)[nH]c2nc(Cc4ccccc4)nc(NCCCN4CCCCC4)c23)n1 [Cmpd 41]	< 100	–
COC(=O)c1ccc2c(c1)[nH]c1ncnc(NCCCN3CCOCC3)c12 [Cmpd 19]	> 1000	–
COC(=O)c1ccc2c(c1)[nH]c1ncnc(NCCC3CCNCC3)c12 [Cmpd 18]	250 to 500	–
COC(=O)c1ccc2c(c1)[nH]c1cc(Cc3ccccc3)nc(NCCN3CCCC3)c12 [Cmpd 78]	< 100	–
COC(=O)c1cnc2c(c1)[nH]c1nc(Cc3ccccc3)nc(N(C)CCCN3CCCCC3)c12 [Cmpd 65]	< 100	–
COC(=O)c1ccc2c(c1)[nH]c1cc(Cc3cccnc3)nc(N3CCC(N4CCCC4)CC3)c12 [Cmpd 86]	> 1000	–
COC(=O)c1ccc2c(c1)[nH]c1nc(Cc3ccccc3)nc(NCCCN(C)CCCNC(=O)CCCC[C@@H]3SC[C@@H]4NC(=O)N[C@@H]43)c12 [Cmpd 56]	250 to 500	–
